How the values were obtained:
[1] = tested on: 5hmC peak enrichment in the whole genome; assay: Genome-wide 5hmC-seq in ML-2 AML cells; assay type: cell-based, human
Protocol: FIG. 12. […] 5hmC peak counts at different IDR cutoffs were shown. (b) Read density across 5hmC enriched regions. A unified catalog of 5hmC enriched regions was generated. Shown are heatmaps rank-ordered by reads per kilobase of exon model per million mapped reads (RPKM) of 5hmC-Seal samples minus that of the input samples. (c) Read density across all RefSeq genes. Shown are heatmaps of 5hmC read density changes across all RefSeq gene loci and 5 kb flanking regions (minus input values).
100 ng genomic DNA extracted from ML-2 cell were fragmented in 50 jiL Tagmentation buffer at 55° C. Fragmented DNA was purified by Zymo DNA clean&concentrator Kit (Zymo Research, Tustin, Calif.). Then, the selective 5hmC chemical labeling was performed in 25 jiL glucosylation buffer (50 mM HEPES buffer pH 8.0, 25 mM MgCl2) containing above fragmented DNA, 100 μM N3-UDP-Glc, 1 μM β-GT, and incubated at 37° C. for 2 hr. […] The libraries were quantified by a Qubit fluorometer (Life Technologies) and sequenced on an Illumina HiSEQ4000 sequencer with paired-end 50-bp reads.
The gene network was analyzed with Ingenuity Pathway Analysis (Qiagen). […] For 5hmC sequencing analysis, illumina sequencing reads were mapped to UCSC hg19 human reference genome using bowtie program. Only uniquely mapped reads were retained for the following data analysis. […]

[2] = Acute and long-term toxicity profiling in healthy mice; assay type: in vivo, C57BL/6 mice; conditions: for acute (24 hrs) or long-term (200 days) toxicity: 2.5 mg/kg i.p. once per day 10 days, body, spleen, liver weights, WBC, PB and BM lineages; for WBC: 2.5 mg/kg i.p. 10 days, normal range 1.8-10.7; for BA / EO: normal range 0.0-0.2; for MO: normal range 0.0-0.4; for NE: normal range 0.1-2.4; for LY: normal range 0.9-9.3; for RBC: normal range 6.36-9.42; for PLT: normal range 592-2972
Protocol: FIG. 15. […] 24 hrs after the last administration, body weights (a), weights of spleens (b), livers (c), total PB WBC counts (d), BM Mac1^+Gr1^+ (e), Mac1^+Gr1^− (f), Mac1^−Gr1^+ (g), and c-Kit^+ (h) populations were analyzed.
FIG. 16. […] 200 days after the last administration, body weights (a), weights of spleens (b), livers (c), total PB WBC counts (d), BM Mac1^+Gr1^+ (e), Mac1^+Gr1^− (f), Mac1^−Gr1^+ (g), and c-Kit^+ (h) populations were analyzed.

[3] = acute, 24 hrs post last administration
[4] = long-term, 200 days post last administration

SMILES | reduction of 5hmC peak enrichment in the whole genome [1] | acute (24 hrs) or long-term (200 days) toxicity [2] | WBC [2, 3] | BA [2, 3] | MO [2, 3] | NE [2, 3] | LY [2, 3] | RBC [2, 3] | PLT [2, 3] | WBC [2, 4] | BA [2, 4] | EO [2, 4] | MO [2, 4] | NE [2, 4] | LY [2, 4] | RBC [2, 4] | PLT [2, 4] | EO [2, 3]
COc1cc(C(c2cc3c(cc2O)OCO3)N2CCCC2)cc(OC)c1OC (centres unmarked) [NSC-370284, 6-(1-Pyrrolidinyl(3,4,5-trimethoxyphenyl)methyl)-1,3-benzodioxol-5-ol] | around 75% | no evidence of either acute or long-term toxicity | 8.35 ± 2.34 K/μl | 0.05 ± 0.05 K/μl | 0.22 ± 0.14 K/μl | 1.67 ± 0.21 K/μl | 6.74 ± 2.55 K/μl | 8.55 ± 3.34 M/μl | 460.21 ± 42.42 K/μl | 10.34 ± 2.19 K/μl | 0.03 ± 0.02 K/μl | 0.11 ± 0.01 K/μl | 0.31 ± 0.03 K/μl | 2.26 ± 0.54 K/μl | 7.68 ± 1.55 K/μl | 7.38 ± 1.7 M/μl | 929.62 ± 154.61 K/μl | 
CC(C)(C)c1cc(C(c2cc3c(cc2O)OCO3)N2CCOCC2)cc(C(C)(C)C)c1O (centres unmarked) [UC-514321, 6-{[4-Hydroxy-3,5-bis(2-methyl-2-propanyl)phenyl](4-morpholinyl)methyl}-1,3-benzodioxol-5-ol] | around 75% | no evidence of either acute or long-term toxicity | 8.64 ± 3.68 K/μl | 0.07 ± 0.05 K/μl | 0.27 ± 0.1 K/μl | 1.94 ± 0.56 K/μl | 6.54 ± 2.7 K/μl | 9.54 ± 0.74 M/μl | 559.43 ± 116.9 K/μl | 11.89 ± 1.64 K/μl | 0.07 ± 0.04 K/μl | 0.1 ± 0.01 K/μl | 0.25 ± 0.05 K/μl | 2.11 ± 0.44 K/μl | 8.55 ± 1.18 K/μl | 7.07 ± 0.42 M/μl | 681.56 ± 402.64 K/μl | 0.14 ± 0.12 K/μl

Reference: patent publication US11311513B2, “Methods, agents, and compositions for the treatment of acute myeloid leukemia” (UNIVERSITY OF CINCINNATI, priority 2017, dated 2022)
